Laboratory results published in patent publication US20200123127A1, “REMOVAL OF SENESCENCE-ASSOCIATED MACROPHAGES” (EVERON BIOSCIENCES, INC., priority 2016, published 2020).
Like-named read-outs stand apart in the source and are kept apart here.

Columns and labels:
[1] = test system: SAMs; experiment: SAM viability (CyQuant Direct / resazurin); type: cell-based, mouse; conditions: 72 hour; presence or absence of IL-4 10 ng/mL
Experimental: (§1) FIG. 8. Immunomodulatory regulation of p16(Ink4a) and SAβG in macrophages. Peritoneal lavage cells elicited by alginate-encapsulated SCs from p16^Ink4a/Luc mice were treated ex vivo with immunomodulatory agents for up to 72 hours. (A) mRNA expression of p16(Ink4a) and β-galactosidase (Glb1) in macrophages (relative to B2m expression) with or without LPS stimulation for 72 hours analyzed via qRT-PCR, normalized to non-treated controls. (B) Microphotograph of SAβG-stained adherence-selected macrophages with or without stimulation with LPS (1 ng/mL) for 72 hours (10× objective). (C&D) Kinetics of p16(Ink4a) promoter-dependent luciferase activity per cell with or without LPS stimulation (C) or IL-4 stimulation (D), normalized to activity from non-treated cells at time zero. Results are shown as the mean±standard deviation for at least 3 experiments. Statistical significance with respect to non-treated control at time zero is indicated. (E) Luciferase activity and (3-galactosidase activity (via 4-MUG hydrolysis) from proteose peptone-elicited lavage cells following stimulation with IL-4 (20 ng/mL) for 72 hours, normalized to non-treated controls. (F) Viability following 72 hour dose-response to JAK1/2 inhibitor Ruxolitinib in the presence or absence of IL-4 (10 ng/mL) stimulation, measured by CyQuant Direct DNA-based viability assay. Viability normalized to respective controls lacking Ruxolitinib. (G&H) Dose-response of STAT6 inhibitor AS1517499 against luciferase activity (G) and viability via CyQuant Direct assay (H) following 72 hour treatment in the presence and absence of IL-4 (10 ng/mL). Results normalized to respective controls (with or without IL-4) lacking STAT6 inhibitor. Statistical significance is calculated with respect to the difference between IL-4 stimulated and non-stimulated cells at each concentration of STAT6 inhibitor. (I) Relative luciferase activity per cell following repolarization with M1- and M2-inducing agents. Macrophages were left non-treated (NT) or treated with either LPS (1 ng/ml) or IL-4 (20 ng/ml) for 72 hours (days 1-3), as indicated. For each treatment set, samples were collected at 72 hours (no further treatment; days 4-6=x). Alternatively, cells were washed and placed in fresh medium (−), medium containing LPS (1 ng/mL) and IFN-γ (10 ng/mL), or medium containing IL-4 (20 ng/mL) and IL-13 (10 ng/mL) and incubated for an additional 72 hours prior to sample collection (as indicated for days 4-6). Luciferase activity is expressed as the percent activity per cell relative to non-treated (NT) controls after the first 72 hours.
FIG. 10. Elevated p16(Ink4a) and β-galactosidase is regulated by immunomodulatory agents in macrophages, but not in mesenchymal SCs. Primary cultures of adipose-derived mesenchymal stromal cells (AdMSC) isolated from p16^Ink4a/Luc mice were irradiated (20 Gy) and cultured for 10 days for senescence induction. Mock irradiated cells were used as a proliferating cell control. Response of senescent and proliferating AdMSCs to immunomodulatory agents were compared to that of peritoneal lavage cells elicited by our alginate bead model. A-D) Dose-response curves of LPS (top panels: […]) and Poly(I:C) (bottom panels: C&D) on p16(Ink4a) promoter-dependent luciferase activity (left panels: A&C) and beta-galactosidase activity measured via 4-MUG hydrolysis (right panels: B&D) after 72 hr treatment. […]
FIG. 13. […] SAM viability was determined using the resazurin cell viability assay (Res). […]

[2] = test system: p16(Ink4a) expression in SAMs; experiment: p16(Ink4a) promoter-dependent luciferase activity in alginate bead-elicited macrophages (SAMs) ex vivo; type: cell-based, mouse; conditions: for IL-4-dependent increase in luciferase activity / p16(Ink4a) expression: IL-4 10 ng/mL, 72 hour
Experimental: FIG. 7. Immunomodulatory regulation of p16(Ink4a) and SAβG in macrophages. Peritoneal lavage cells elicited by alginate-encapsulated SCs from p16^Ink4a/Luc mice were treated ex vivo with immunomodulatory agents for 72 hours. A) p16 promoter-dependent luciferase activity (black bars) and […] activity (via 4-MUG hydrolysis) (gray bars) were measured following treatment with M1- and M2-polarizing stimuli: LPS at 1 ng/mL, IFN-γ at 10 ng/mL, LPS/IFN-γ co-treatment, Poly(I:C) at 10 μg/mL, IFN-α at 100 U/mL, IL-4 at 20 ng/mL, IL-13 at 10 ng/ml, and IL-4/IL-13 co-treatment. Results are shown as the mean±standard deviation for at least 3 independent experiments, with statistical significance between treated compared to non-treated samples depicted. B) Dose-dependent response of JAK1/2 inhibitor Ruxolitinib on luciferase activity in elicited macrophages in the presence (gray bars) or absence (black bars) of IL-4 (10 ng/mL) stimulation. Enzyme activities are expressed as the percent activity relative to non-treated (NT) controls per cell. Statistical significance between IL-4 stimulated and non-stimulated cells at each concentration of ruxolitinib is shown.
as §1
Luciferase activity of cell lysates was accessed using Bright-Glo™ Luciferase Assay System (Promega; Madison, Wis.) according to manufacturer's instructions with minor modifications. […]

[3] = test system: p16(Ink4a) in mLF and mVAT fibroblasts; experiment: Modulation of p16(Ink4a) in mouse lung and visceral adipose tissue-derived fibroblasts; type: cell-based; conditions: for Modulation of p16(Ink4a): mLF and mVAT Senescent: 20Gy irradiation for senescence induction; for Modulation of p16(Ink4a): mLF and mVAT Proliferating: without irradiation
Source text: We next sought to determine whether immunomodulatory agents, and other small molecules, were capable of selectively modulating p16(Ink4a) expression in SAMs by comparing their effects on p16 expression in SAMs to that of mouse lung fibroblasts (mLF) and mouse visceral adipose tissue-derived fibroblasts (mVAT). […] Immunomodulatory agents cause little to no change in p16 expression in fibroblasts. For example, mouse fibroblasts are reported to respond to LPS and IL-4 (expressing TLR4 and IL-4R, respectively), yet these agents are unable to modulate p16 in fibroblasts.

[4] = test system: chronologically aging mice; experiment: Survival and frailty index of chronologically aging mice; type: in vivo, mouse
Experimental: FIG. 11. OT-82 effects on survival and frailty index of old mice. (A) Male and female mice were treated with OT-82 or with vehicle alone as a negative control. Survival was measured over the course of six treatments.
FIG. 12. Effects of asenins TA-3899 and TA-4812 on survival and frailty index of old mice. Results are provided on a background of FI of mice of the similar age, aged normally without any treatments (black color). Difference between FI of males receiving 3899 and intact mice is statistically significant (p=0.02).
Frailty Index (FI) was determined for individual mice as described previously (Antoch et al. Aging. 2017; 9: 1-12) using a 26 week-old group as a “young mouse” reference. For each mouse, various parameters were measured. These parameters include non-invasive measurements, including age, body weight, grip strength, diastolic blood pressure, and tail blood flow. Additional blood chemistry measurements were also determined, including white blood cell count, neutrophil count, neutrophil percentage, lymphocyte percentage, monocyte percentage, eosinophil percentage, red blood cell count, hemoglobin, hematocrit, mean corpuscular volume, mean corpuscular hemoglobin, mean corpuscular hemoglobin concentration, platelet count, and mean platelet volume. For each parameter mean value and standard deviation were calculated. Animals differing by more than one standard deviation (STDEV) from mean value in any single parameter were excluded from the reference group. Values for each measured parameter were compared with corresponding values for the reference group and assigned a score. The number of deficits an individual mouse expressed was calculated as a ratio of total number of parameters measured and this value is referred to as the frailty index.
Asenins TA-3899 and TA-4812 were evaluated for their effects on survival and frailty index in a model of chronologic aging mice. Treatment lasted for 20 weeks (weeks 77-97 of age). […] Frailty index of males was measured at week 109.

[5] = test system: RWPE-1 normal prostate epithelial cells; experiment: dnPTEN-induced senescence model in RWPE-1 cells (SA-beta-Gal and methylene blue staining); type: cell-based; conditions: 10 uM for 72 hours
Experimental: FIG. 3. Activity of A1.1 and analog A1.12 in a model of dnPTEN-induced senescence in RWPE-1 normal prostate epithelial cells. A population of transduced RWPE-1 cells containing doxycycline-inducible dnPTEN was senesced via 1 ug/ml doxycycline for 7 days. Cells which bypass senescence continued to proliferate to form a confluent monolayer. The mixed population of senescent and proliferating cells was treated with A1.1 and A1.12 at 10 uM for 72 hours. SA-beta-Gal staining was used to monitor the amount of senescent cells of treatment groups compared to non-treated control. In addition, methylene blue was used to quantitate overall cell mass, which was comprised mostly of the non-senescent, proliferating cells. Treatment with the anti-senescent compounds led to a substantial decrease in SA-beta-Gal staining, while the amount of methylene blue staining was less affected.
Senescent cells are strongly associated with benign prostate hyperplasia (BPH) and the development of prostate cancer [Vital, P. et al. (2014) The Senescence-Associated Secretory Phenotype Promotes Benign Prostatic Hyperplasia. Am J Pathol, 184(3): 721-731; Burton, D. et al. (2013). Androgen Deprivation-Induced Senescence Promoted Outgrowth of Anderogen-Refractory Protstate Cancer Cells. PLOS One, 8(6):e68003]. […] We sought to evaluate the efficacy of our compounds in a model of RWPE-1 normal prostate epithelial cells transduced with a construct for inducible loss of PTEN function [doxycycline-inducible expression of a dominant-negative PTEN (dnPTEN) mutant]. In the presence of doxycycline, a fraction of the population of transduced cells became senescent, while cells bypassing senescence continued to grow until a confluent monolayer was formed.

[6] = test system: adult rat dermal fibroblasts (RDF); experiment: Resazurin viability assay, senescent vs proliferating rat dermal fibroblasts; type: cell-based; conditions: Rattus norvegicus, Fibroblast, 72 hour exposure, resazurin
Experimental: (§2) Cytotoxicity of A1.1 analogs against bleomycin-induced senescent human NDFs and rat dermal fibroblasts (RDFs). Activity of analogs was assessed from dose-response curves against irradiation- or bleomycin-induced senescent and proliferating cells to calculate IC50s (uM). The fold difference of proliferating versus senescent cell IC50s was used to assess the level of specific anti-senescent activity of the compounds.
(§3) For generation senescent human neonatal dermal fibroblasts (NDFs) and adult rat dermal fibroblasts (RDFs), cells are treated at ˜10 ug/ml bleomycin for 3 days (for bleomycin-induced senescence) or irradiated once at 20 Gy using a gamma irradiator (Cs source), followed by at least 7 day recovery in fresh medium for induction of senescence. Senescent and non-senescent (proliferating) cells for each cell line are plated into 384-w plate, followed by 72 hour exposure to a dose titration of compounds. Viability measurements are estimated using the resazurin viability assay. Using GraphPad Prism 5, the IC50 values are calculated from the non-linear regression of log-transformed compound concentrations versus dose-response normalized to background and non-treated controls.

[7] = test system: human neonatal dermal fibroblasts (NDF); experiment: Resazurin viability assay, senescent vs proliferating/quiescent human neonatal dermal fibroblasts; type: cell-based; conditions: Homo sapiens, Fibroblast, 72 h, 72 hour exposure, resazurin
Experimental: FIG. 2. Compound A1.1 selectively kills senescent human neonatal dermal fibroblasts (NDF) cells in a dose- and time-dependent manner. (FIG. 2A) Normal proliferating and quiescent NDF cells, and the cells made senescent via exposure to genotoxic agents (doxorubicin, bleomycin and gamma-irradiation) were incubated with increasing concentrations of A1.1. At 72 hours post-treatment cell viability was measured via resazurin viability assay. (FIG. 2B) Compound A1.1 selectively kills senescent NDF cells in time-dependent manner discriminating between acute genotoxic stress and senescence. Acutely damaged NDF cells were irradiated with 4 Gy gamma-irradiation 24 hours before A1.1 treatment. Senescent NDF cells were treated with bleomycin or irradiated with 15 Gy and incubated for 14 days to induce senescence before treatment with A1.1. Proliferating acutely damaged and senescent NDF cell were treated with 1.875-30 μM A1.1 and viable cells were measured at 72 hours after treatment. Average and standard deviation are shown.
Normal proliferating and quiescent NDF cells, and the cells made senescent via exposure to genotoxic agents (doxorubicin, bleomycin and gamma-irradiation) were incubated with increasing concentrations of A1.1. At 72 hours post-treatment cell viability was measured via resazurin viability assay.
A1.1 selectively kills senescent human neonatal dermal fibroblasts (NDF) cells in time-dependent manner discriminating between acute genotoxic stress and senescence ([…]). Acutely damaged NDF cells were irradiated with 4 Gy gamma-irradiation 24 hours before A1.1 treatment. Senescent NDF cells were treated with bleomycin or irradiated with 15 Gy and incubated for 14 days to induce senescence before treatment with A1.1.
as §2, §3

SMILES: NC(=O)c1cnc(NCCc2ccc(O)c(Cl)c2)nc1NCc1ccccc1 [AS1517499, reference compound]
- viability of macrophages (CyQuant Direct) [1]: without affecting viability
- IL-4-dependent increase in luciferase activity / p16(Ink4a) expression [2]: abrogated
- Modulation of p16(Ink4a): mLF and mVAT Senescent [3]: no change
- Modulation of p16(Ink4a): mLF and mVAT Proliferating [3]: no change

SMILES: N#CCNC(=O)c1ccc(-c2ccnc(Nc3ccc(N4CCOCC4)cc3)n2)cc1 [CYT387, momelotinib, reference compound]
- IL-4-dependent increase in luciferase activity / p16(Ink4a) expression [2]: abrogates
- Modulation of p16(Ink4a): mLF and mVAT Senescent [3]: no change
- Modulation of p16(Ink4a): mLF and mVAT Proliferating [3]: no change

SMILES: CCOC(=O)c1sc(SCc2ccccc2)c2c1CN(c1ccc(OC)cc1)C/C2=N\O [Example A1.11, Ethyl 1-(benzylthio)-7-(hydroxyimino)-5-(4-methoxyphenyl)-4,5,6,7-tetrahydro-thieno[3,4-c]pyridine-3-carboxylate]
- survival rates vs control groups ([4]; OT-82: after 6 courses, 111 weeks of age, asenins: treated weeks 77-97, at 112 weeks of age): no statistical significance
- FI of males compared to intact animals ([4]; treatment weeks 77-97 of age, measured at week 109): statistically significant decrease
- Modulation of p16(Ink4a): SAMs ([2]; SAMs from NDF alginate beads, dose-response testing): decrease
- Modulation of p16(Ink4a): mLF and mVAT Senescent [3]: no change
- Modulation of p16(Ink4a): mLF and mVAT Proliferating [3]: no change

SMILES: CCNC(=O)c1sc(SCc2ccccc2)c2c1CC(c1ccc(OC)cc1)C/C2=N\O (stereo not drawn) [Example A1.12]
- proliferating cells / overall cell mass (methylene blue staining) [5]: little effect against proliferating cells
- senescent cells (number of SA-β-Gal-positive cells) ([5]; dnPTEN-induced senescence): selective elimination of senescent cells
- IC50 ([6]; proliferating RDF, read-out: IC50 RDFprolif): < 10 µM
- IC50 ([6]; senescent RDF, bleomycin-induced, read-out: IC50 RDFsen.bleo): < 5 µM
- IC50 ([7]; proliferating NDF, read-out: IC50 NDFprolif): < 10 µM
- IC50 ([7]; senescent NDF, bleomycin-induced, read-out: IC50 NDFsen.bleo): < 5 µM
